From ChEMBL document CHEMBL3507680, “University of Dundee, Gates Library screen for HepG2 cell viability” come the findings set out here.

The data set can be described thus: Human HepG2 cell viability assay in 384 well format. Type of data set: toxicity, cell-based. On the set-up: dose 125 nL, time 70.5 hour; cytotoxicity at 70.5 h: concentration not given beside the values. To be noted: HepG2 cells, read-out: Inhibition.
Take `CCCc1ccc(S(=O)(=O)NC(=O)CCc2cscn2)cc1`: the cytotoxicity at 70.5 h is 4.19%. The figure for `OC1(CNCc2ccc(F)c(C(F)(F)F)c2)CCSCC1` is -7.48%; for `Cc1ccccc1C(C)(C)CNC(=O)CN(C)c1cnccn1` it is -0.621%; for `Cc1cccc(N2CC(c3nnc(N)s3)CC2=O)c1` (stereo not drawn) it is -13.7%.

Turning to `Cc1csc(C(C)(C)NCCOc2ccc(CC#N)cc2)n1`, the cytotoxicity at 70.5 h was -0.219%. Consider `Cc1nnc(C(C)N(C)Cc2c(C)nn(-c3ccccc3)c2C)o1` (stereo not drawn), for which the cytotoxicity at 70.5 h was -1.32%.

With `CCCOCCNc1nc2c(s1)c(C)nn2C`, the cytotoxicity at 70.5 h is 24.8%. The figure for `NC(=O)CCN(CC(=O)NCc1ccccn1)c1ccc(F)cc1` is -9.69%; for `COc1ccccc1CC(=O)NS(=O)(=O)c1ccc(NC(C)=O)cc1` it is -6.22%; for `CCOc1ccc(Oc2cc(CN)ccn2)cc1` it is -27.6%. With `O=C(NCc1cccnc1)N1CCC2(CC(=O)N(c3ccsc3)C2)C1` (stereo not drawn), the cytotoxicity at 70.5 h is -6.34%.

As for `c1ccc(CN2CCc3c(CNc4nccs4)n[nH]c3C2)nc1`, the cytotoxicity at 70.5 h is -16.9%. Then `CC(=O)N1CCN(CC2CCOc3ccccc3C2)CC1` (stereo not drawn), with -1.42%; and `CN(C)C1COC2(CCN(C(=O)c3cccc(Cl)c3)CC2)C1` (stereo not drawn), with -9.63%; and `CN(C)Cc1ccc(C(=O)N2CCCC(n3cccn3)C2)cc1` (stereo not drawn), with 8.2%. Consider `CN1CCCC(Cc2cncc(C(=O)NCC3CC3)c2)C1` (stereo not drawn), for which the cytotoxicity at 70.5 h is -1.13%. As to `Cc1ccc(N(C)C2CCN(C(=O)CCc3ccco3)CC2)nn1`, the cytotoxicity at 70.5 h was -11.8%. For the compound `O=C(c1ccc(N2CCCC2)nn1)N1CCCc2ccc(F)cc21`, the cytotoxicity at 70.5 h stood at 8.25%. As to `O=c1[nH]cc(N2CCCCC2)c(=O)[nH]1`, the cytotoxicity at 70.5 h is -3.72%. As for `Cc1cc2nc(SCC(=O)N3CCOCC3)n(CC(C)C)c(=O)c2[nH]1`, the cytotoxicity at 70.5 h was -7.46%.

Consider `COc1cc(NC(=O)N(C)Cc2ccc(Br)o2)ncn1`, for which the cytotoxicity at 70.5 h was -8.49%. As to `Cc1cccc(OCC(O)CN2CCN(c3nccs3)CC2)c1` (stereo not drawn), the cytotoxicity at 70.5 h was -3.61%. Turning to `Cc1nn(C)c(C)c1CC(=O)N1CCCC1Cn1cccn1` (stereo not drawn), the cytotoxicity at 70.5 h is -5%. Then `CC(NC(=O)NCC1(O)CCC1)c1ccc(OCC2CC2)c(F)c1` (stereo not drawn), with -12%. Then `Cc1cc2c(N3CCC(N(C)CCc4cnn(C)c4)CC3)ncnc2s1`, with 2.46%.

For `O=C(COC1CCCC1)NCCc1nc(-c2ccccn2)cs1`, the cytotoxicity at 70.5 h is -3.01%.

Consider `CCn1cc(CN2CCCN(C(=O)c3c(C)oc(C)c3C)CC2)cn1`, for which the cytotoxicity at 70.5 h was -12.8%. Turning to `CN(CC1CCCN1C)c1nccc(C2CCCC2)n1` (stereo not drawn), the cytotoxicity at 70.5 h was 6.3%. With `Cc1ccc(CN(C)Cc2nc3c(cnn3C)c(=O)[nH]2)c(C)c1`, the cytotoxicity at 70.5 h worked out at 7.52%. `Cc1ccc(C2CN(Cc3cnc(-c4ccccn4)s3)CCO2)o1` (stereo not drawn): the cytotoxicity at 70.5 h worked out at 22.5%. For the compound `Cc1nccn1CC1CCCN1CCCc1nc(-c2cccs2)no1` (stereo not drawn), the cytotoxicity at 70.5 h came to 9.19%. The figure for `Cc1nc2ccccc2n1Cc1cc(C(=O)NC2CCOC2)no1` (stereo not drawn) is -18.8%; for `O=C(N1CCCC1)C1(Cc2ccc(-c3cccs3)cc2)CCNC1` (stereo not drawn) it is 2.43%; for `O=c1[nH]nc(C2CC2)n1-c1cccc(Cl)c1` it is -4.41%. Take `CC(NCCCc1cnn(C)c1)c1ccc(Cl)s1` (stereo not drawn): the cytotoxicity at 70.5 h stood at 2.71%. In the case of `CN1CCC2(COCc3cnc(N4CCOCC4)nc32)C1` (stereo not drawn), the cytotoxicity at 70.5 h was -16.8%. Then `COCc1nccc(C2CCCN(Cc3ccc(C#N)cc3)C2)n1` (stereo not drawn), with -5.34%; and `O=C(c1ccnc(C2CCNCC2)c1)N1CCCC1`, with 7.01%.

As for `Cc1cc(=O)n2nc(Oc3cccc(I)c3)sc2n1`, the cytotoxicity at 70.5 h was -20.9%. As to `Cc1occc1C(=O)N1CCCC2(CCN(c3ccsc3)C2=O)C1` (stereo not drawn), the cytotoxicity at 70.5 h was -6.53%. As for `Cn1cc(CCNC(=O)NC2CCS(=O)(=O)C2)cn1` (stereo not drawn), the cytotoxicity at 70.5 h was -1.53%. Then `Cc1cnn(C2CCCN(C(=O)Cc3cn4ccsc4n3)C2)c1` (stereo not drawn), with -5.39%. In the case of `CC(C)(C)CN1CCCC(O)(CN2CCc3[nH]ncc3C2)C1=O` (stereo not drawn), the cytotoxicity at 70.5 h was -1.48%. The figure for `Cc1ccc(OC2(C(=O)N(C)Cc3ccoc3)CCNCC2)cc1` is -16.8%; for `O=C(c1nnn(-c2ccc(F)cc2)n1)N1CCC(O)CC1` it is 2.17%; for `CCS(=O)(=O)N1CCOC2(CCCN(Cc3ccccn3)C2)C1` (stereo not drawn) it is -1.63%.

For the compound `CCOc1c(Br)cc(/C=C/c2ncc(C(=O)O)s2)cc1OC`, the cytotoxicity at 70.5 h was -11.1%. In the case of `Cc1ncccc1C(=O)N1CCC2(CCc3ccccc3C(=O)N2)C1` (stereo not drawn), the cytotoxicity at 70.5 h was 15.5%. Then `CN1CCN(Cc2cccnc2)C(=O)C12CCN(Cc1ccco1)CC2`, with -8.43%; and `c1c(CN2CCOCC2)nc2n1CCN(C1CCOCC1)C2`, with -1.69%; and `Cc1nn(CCC#N)c(C)c1[C@@H]1C=C[C@@H](NCc2cccc(Cl)c2)C1`, with -4.45%. `Cc1nc(C2CCN(C(=O)c3cccnc3)CC2)c2sccn12`: the cytotoxicity at 70.5 h worked out at 0.00673%.

Turning to `CCc1nc(C2CCCN2CC(=O)Nc2c(C)n[nH]c2C)no1` (stereo not drawn), the cytotoxicity at 70.5 h stood at 5.42%. `Cc1ccc(NC(=O)c2coc(C)n2)c(C)c1`: the cytotoxicity at 70.5 h is -6.55%.

For `CNc1cnc(CC2COCCN(Cc3ccccc3)C2)cn1` (stereo not drawn), the cytotoxicity at 70.5 h was -2.53%. For the compound `CN(Cc1cn2c(n1)CN(CC1CCOC1)CC2)Cc1ccco1` (stereo not drawn), the cytotoxicity at 70.5 h amounted to 1.38%.

Regarding `c1nc(N2CCN(Cc3nnnn3C3CC3)CC2)c2sccc2n1`, the cytotoxicity at 70.5 h is 2.44%. Regarding `CN1C(=O)CCC12CCN(c1ccc(C#N)cn1)CC2`, the cytotoxicity at 70.5 h is -8.99%.

On to `CN(C(=O)Nc1ccccn1)C1CCCN(c2ccccc2)C1=O` (stereo not drawn), for which the cytotoxicity at 70.5 h stood at 3.77%. In the case of `Cc1cccc(N2CCC3(CCCN(C(=O)c4cccnc4)C3)C2)n1` (stereo not drawn), the cytotoxicity at 70.5 h was found to be 18.7%.

In the case of `O=C(NCC1CC1)C1CCCN(c2cccc(C(F)(F)F)n2)C1` (stereo not drawn), the cytotoxicity at 70.5 h came to 19.6%.

As to `CCN(CC)C(=O)Cn1ccc2cc(NC(=O)C3CC3)ccc21`, the cytotoxicity at 70.5 h was determined as 7.86%. With `COC[C@]1(O)CCN(c2cc(N3CCOCC3)ncn2)CC1(C)C`, the cytotoxicity at 70.5 h is -9.52%.

On to `CCN1CCN(CC(O)c2ccc(OC(F)(F)F)cc2)CC1` (stereo not drawn), for which the cytotoxicity at 70.5 h turned out to be 28.9%.

For the compound `CC(C)CNC[C@H]1O[C@H](Cc2cc(-c3ccccn3)on2)CC[C@@H]1O`, the cytotoxicity at 70.5 h turned out to be 0.841%. `Cc1cnn(C2CN(Cc3nnc(C4CC4)o3)C2)c1`: the cytotoxicity at 70.5 h was -10.1%.

Consider `CCC(CO)NC(=O)Nc1cc(F)ccc1SCC(F)F` (stereo not drawn), for which the cytotoxicity at 70.5 h was -11.1%.

On to `O=C(NCCc1ccncc1)C1CCN(Cc2ccco2)CC1`, for which the cytotoxicity at 70.5 h amounted to 10.1%. The figure for `CNC(=O)CN(C(=O)c1ccc(SC)o1)c1cccc(F)c1` is -0.365%. Turning to `Nc1nc2nc(C3CCCN(C(=O)c4cscn4)C3)ccc2s1` (stereo not drawn), the cytotoxicity at 70.5 h worked out at 9.1%. On to `O=C(CNc1cc2c(cc1Cl)OCCCO2)NCc1ccc(F)cc1`, for which the cytotoxicity at 70.5 h was -4.01%. In the case of `CN(CCOc1ccccc1)C(=O)Nc1cccn(C)c1=O`, the cytotoxicity at 70.5 h was determined as 20.8%. For the compound `CS(=O)(=O)NC1CCN(C(=O)c2ccc(Br)cc2)C1` (stereo not drawn), the cytotoxicity at 70.5 h was -7.16%.
